Laboratory results taken from EPA's ToxRefDB 2.

Experiments:
dog [1] = conditions: Chronic toxicity, beagle, Oral, Feed, dose end: 60 week, group: cholinesterase
rat [2] = conditions: Combined chronic toxicity/carcinogenicity, sprague dawley, Oral, Feed, dose end: 24 month, group: systemic
mouse [3] = conditions: Carcinogenicity, cd1, Oral, Feed, dose end: 18 month
rat [4] = conditions: Prenatal developmental toxicity study, sprague dawley, Oral, Gavage/Intubation, dose end: 15 GD
rabbit [5] = conditions: Prenatal developmental toxicity study, new zealand white, Oral, Gavage/Intubation, dose end: 18 GD, group: maternal
rat [6] = conditions: Prenatal developmental toxicity study, sprague dawley, Oral, Gavage/Intubation, dose end: 15 GD; remark: listed apart in the source
rat [7] = conditions: Combined chronic toxicity/carcinogenicity; fischer; Inhalation; Whole-Body; dose end: 105 week; group: systemic; systemic / pathology microscopic / nose / atrophy + systemic / pathology microscopic / nose / inflammation + systemic / pathology …
mouse [8] = conditions: Combined chronic toxicity/carcinogenicity, b6c3f1, Oral, Gavage/Intubation, dose end: 2 year, group: systemic
mouse [9] = conditions: Subchronic oral toxicity in rodents, b6c3f1, Gavage/Intubation, dose end: 13 week, group: systemic
rat [10] = conditions: Combined chronic toxicity/carcinogenicity; sprague dawley; Oral; Gavage/Intubation; dose end: 24 month; group: systemic; systemic / hematology / erythrocyte (rbc) count differential / erythrocyte (rbc) + systemic / hematology / hemoglobin (hgb) / hemoglobin (…
rabbit [11] = conditions: Prenatal developmental toxicity study, new zealand white, Dermal, Topical, dose end: 18 GD, group: maternal
rat [12] = conditions: Prenatal developmental toxicity study; wistar; Oral; Feed; dose end: 20 GD; group: maternal; systemic / in life observation / body weight / body weight gain
rat [13] = conditions: Fertility (Segment I); sprague dawley; Oral; Gavage/Intubation; dose end: 13 PND; group: offspring; systemic / in life observation / body weight / offspring (pup) weight
rat [14] = conditions: Subchronic oral toxicity in rodents, fischer, Water, dose end: 13 week, group: systemic
mouse [15] = conditions: Carcinogenicity; cd1; Oral; Feed; dose end: 18 month; group: systemic; systemic / in life observation / body weight / body weight + systemic / in life observation / body weight / body weight gain
rat [16] = conditions: Subchronic oral toxicity in rodents, sprague dawley, Feed, dose end: 90 day, group: systemic
dog [17] = conditions: Chronic toxicity; beagle; Oral; Gavage/Intubation; dose end: 52 week; group: systemic; systemic / clinical chemistry / cholesterol / cholesterol + systemic / clinical chemistry / triglycerides / triglycerides + systemic / in …
rat [18] = conditions: Combined chronic toxicity/carcinogenicity, sprague dawley, Oral, Feed, dose end: 104 week, group: systemic
rat [19] = conditions: Prenatal developmental toxicity study, sprague dawley, Oral, Gavage/Intubation, dose end: 19 GD
rat [20] = conditions: Combined chronic toxicity/carcinogenicity; fischer; Oral; Gavage/Intubation; dose end: 2 year; group: systemic; systemic / in life observation / body weight / body weight + systemic / in life observation / clinical signs / [other] + systemic / in life …
rat [21] = conditions: Subchronic oral toxicity in rodents, fischer, Gavage/Intubation, dose end: 13 week, group: systemic
mouse [22] = conditions: Subchronic oral toxicity in rodents, cd1, Feed, dose end: 13 week, group: systemic, systemic / hematology / leukocyte (wbc) count differential / leukocyte (wbc) + systemic / hematology / lymphocyte / lymphocyte + systemic / …
[23] = cholinesterase / cholinesterase / cholinesterase / erythrocyte cholinesterase (che) + cholinesterase / cholinesterase / cholinesterase / …
[24] = cholinesterase / cholinesterase / cholinesterase / plasma cholinesterase (che)
[25] = systemic / in life observation / body weight / body weight + systemic / in life observation / body weight / body weight gain + systemic / …
[26] = group: cholinesterase, cholinesterase / cholinesterase / cholinesterase / brain cholinesterase (che) + cholinesterase / cholinesterase / cholinesterase / …
[27] = group: systemic, systemic / in life observation / body weight / body weight gain + systemic / in life observation / food consumption / food consumption + …
[28] = group: developmental, developmental / developmental malformation / bone / incomplete ossification + developmental / developmental malformation / bone / unossified
[29] = group: maternal, systemic / in life observation / clinical signs / salivation + systemic / in life observation / mortality / mortality + systemic / in life …
[30] = reproductive / reproductive performance / implantations / implantations + systemic / in life observation / body weight / body weight gain + …
[31] = group: developmental, developmental / developmental malformation / brain / dilated cerebral ventricle
[32] = group: maternal, systemic / in life observation / clinical signs / altered breathing rate + systemic / in life observation / clinical signs / lethargy + …
[33] = systemic / hematology / methemoglobin / methemoglobin + systemic / hematology / reticulocyte / reticulocyte + systemic / pathology …
[34] = systemic / pathology microscopic / bone marrow / hypercellularity
[35] = systemic / hematology / reticulocyte / reticulocyte + systemic / organ weight / spleen / absolute + systemic / organ weight / spleen / …
[36] = systemic / in life observation / clinical signs / desquamation + systemic / in life observation / clinical signs / erythema + systemic / …
[37] = systemic / clinical chemistry / aspartate aminotransferase (ast/sgot) / aspartate aminotransferase (ast/sgot) + systemic / clinical …
[38] = systemic / organ weight / liver / absolute + systemic / organ weight / liver / relative to body weight + systemic / organ weight / heart / …
[39] = systemic / organ weight / liver / relative to body weight + systemic / clinical chemistry / cholesterol / cholesterol + systemic / organ …
[40] = systemic / organ weight / testes / relative to body weight
[41] = group: developmental, systemic / in life observation / body weight / fetal weight
[42] = group: maternal, systemic / in life observation / body weight / body weight + systemic / in life observation / body weight / body weight gain + systemic / in…
[43] = systemic / organ weight / liver / relative to body weight

CCOP(=S)(OCC)Oc1nc(Cl)n(C(C)C)n1 [Isazofos]
LOAEL (dog [1]; [23]): > 1.61 mg/kg/day | NOAEL (dog [1]; [23]): ≥ 1.61 mg/kg/day | LEL (dog [1]; [24]): 0.0015 mg/kg/day | NEL (dog [1]; [24]): < 0.0015 mg/kg/day | LOAEL (rat [2]; systemic / in life observation / body weight / body weight + systemic / in life observation / body weight / body weight gain): 10 mg/kg/day | LEL (rat [2]; [25]): 10 mg/kg/day | NEL (rat [2]; [25]): 0.05 mg/kg/day | NOAEL (rat [2]; [25]): 0.05 mg/kg/day | LEL (mouse [3]; [26]): 4.5 mg/kg/day | LOAEL (mouse [3]; [26]): 4.5 mg/kg/day | NEL (mouse [3]; [26]): 0.15 mg/kg/day | NOAEL (mouse [3]; [26]): 0.15 mg/kg/day | LEL (mouse [3]; [27]): 37.5 mg/kg/day | LOAEL (mouse [3]; [27]): 37.5 mg/kg/day | NEL (mouse [3]; [27]): 4.5 mg/kg/day | NOAEL (mouse [3]; [27]): 4.5 mg/kg/day

CCN(CC)CC.O=C(O)COc1nc(Cl)c(Cl)cc1Cl [Triclopyr triethylamine salt]
LEL (rat [4]; [28]): 300 mg/kg/day | LOAEL (rat [4]; [28]): 300 mg/kg/day | NEL (rat [4]; [28]): 100 mg/kg/day | NOAEL (rat [4]; [28]): 100 mg/kg/day | LOAEL (rat [4]; group: maternal, systemic / in life observation / clinical signs / salivation + systemic / in life observation / mortality / mortality): 300 mg/kg/day | NEL (rat [4]; [29]): 30 mg/kg/day | NOAEL (rat [4]; [29]): 100 mg/kg/day | LEL (rat [4]; group: maternal, systemic / in life observation / water consumption / water consumption): 100 mg/kg/day | LOAEL (rabbit [5]; [30]): 100 mg/kg/day | NEL (rabbit [5]; [30]): 10 mg/kg/day | NOAEL (rabbit [5]; [30]): 30 mg/kg/day | LEL (rabbit [5]; reproductive / reproductive performance / preimplantation loss / preimplantation loss): 30 mg/kg/day

c1ccc2ccccc2c1 [Naphthalene]
LEL (rat [6]; [31]): 450 mg/kg/day | LOAEL (rat [6]; [31]): > 450 mg/kg/day | NEL (rat [6]; [31]): 150 mg/kg/day | NOAEL (rat [6]; [31]): ≥ 450 mg/kg/day | LEL (rat [6]; [32]): 50 mg/kg/day | LOAEL (rat [6]; [32]): 50 mg/kg/day | NEL (rat [6]; [32]): < 50 mg/kg/day | NOAEL (rat [6]; [32]): < 50 mg/kg/day | LEL (rat [7]): 3.6 mg/kg/day | LOAEL (rat [7]): 3.6 mg/kg/day | NEL (rat [7]): < 3.6 mg/kg/day | NOAEL (rat [7]): < 3.6 mg/kg/day

Nc1ccc([N+](=O)[O-])cc1 [4-Nitroaniline]
LOAEL (mouse [8]; [33]): 30 mg/kg/day | NOAEL (mouse [8]; [33]): 3 mg/kg/day | LEL (mouse [8]; [34]): 3 mg/kg/day | NEL (mouse [8]; [34]): < 3 mg/kg/day | LOAEL (mouse [9]; [35]): 30 mg/kg/day | NEL (mouse [9]; [35]): 3 mg/kg/day | NOAEL (mouse [9]; [35]): 10 mg/kg/day | LEL (mouse [9]; systemic / pathology microscopic / spleen / hematopoietic cell proliferation + systemic / organ weight / liver / relative to body weight + …): 10 mg/kg/day | LEL (rat [10]): 1.5 mg/kg/day | LOAEL (rat [10]): > 9 mg/kg/day | NEL (rat [10]): 0.25 mg/kg/day | NOAEL (rat [10]): ≥ 9 mg/kg/day

CCCCOCCOCCO [2-(2-Butoxyethoxy)ethanol]
LEL (rabbit [11]; systemic / in life observation / clinical signs / desquamation + systemic / in life observation / clinical signs / erythema): 300 mg/kg/day | LOAEL (rabbit [11]; [36]): > 1000 mg/kg/day | NEL (rabbit [11]; [36]): 100 mg/kg/day | NOAEL (rabbit [11]; [36]): ≥ 1000 mg/kg/day | LEL (rat [12]): 25 mg/kg/day | LOAEL (rat [12]): > 633 mg/kg/day | NEL (rat [12]): < 25 mg/kg/day | NOAEL (rat [12]): ≥ 633 mg/kg/day | LEL (rat [13]): 1000 mg/kg/day | LOAEL (rat [13]): > 1000 mg/kg/day | NEL (rat [13]): 500 mg/kg/day | NOAEL (rat [13]): ≥ 1000 mg/kg/day | LOAEL (rat [14]; [37]): > 1000 mg/kg/day | NEL (rat [14]; [37]): 50 mg/kg/day | NOAEL (rat [14]; [37]): ≥ 1000 mg/kg/day | LEL (rat [14]; systemic / hematology / erythrocyte (rbc) count differential / erythrocyte (rbc) + systemic / hematology / hematocrit (hct) / hematocrit (…): 250 mg/kg/day

O=C(NC(=O)c1c(F)cccc1F)Nc1ccc(CON=C(c2ccc(Cl)cc2)C2CC2)cc1 [Flucycloxuron]
LEL (mouse [15]): 73 mg/kg/day | LOAEL (mouse [15]): 73 mg/kg/day | NEL (mouse [15]): 5.3 mg/kg/day | NOAEL (mouse [15]): 5.3 mg/kg/day | LEL (rat [16]; [38]): 200 mg/kg/day | NEL (rat [16]; [38]): < 200 mg/kg/day | NOAEL (rat [16]; systemic / pathology microscopic / liver / necrosis + systemic / pathology microscopic / spleen / pigmentation + systemic / clinical …): 200 mg/kg/day | LOAEL (rat [16]; systemic / pathology microscopic / liver / necrosis + systemic / pathology microscopic / spleen / pigmentation + systemic / organ weight / …): 2000 mg/kg/day | LEL (dog [17]): 10 mg/kg/day | LOAEL (dog [17]): 10 mg/kg/day | NEL (dog [17]): < 10 mg/kg/day | NOAEL (dog [17]): < 10 mg/kg/day | LOAEL (rat [18]; [39]): > 7000 mg/kg/day | NOAEL (rat [18]; [39]): ≥ 7000 mg/kg/day | LEL (rat [18]; [40]): 120 mg/kg/day | NEL (rat [18]; [40]): < 120 mg/kg/day

[N-]=[N+]=[N-].[Na+] [Sodium azide]
LEL (rat [19]; [41]): 17.5 mg/kg/day | LOAEL (rat [19]; [41]): > 17.5 mg/kg/day | NEL (rat [19]; [41]): 5 mg/kg/day | NOAEL (rat [19]; [41]): ≥ 17.5 mg/kg/day | LEL (rat [19]; [42]): 17.5 mg/kg/day | LOAEL (rat [19]; [42]): > 17.5 mg/kg/day | NEL (rat [19]; [42]): 5 mg/kg/day | NOAEL (rat [19]; [42]): ≥ 17.5 mg/kg/day | LEL (rat [20]): 10 mg/kg/day | LOAEL (rat [20]): 10 mg/kg/day | NEL (rat [20]): 5 mg/kg/day | NOAEL (rat [20]): 5 mg/kg/day | LOAEL (rat [21]; systemic / in life observation / body weight / body weight gain + systemic / in life observation / clinical signs / hunched posture): 10 mg/kg/day | NOAEL (rat [21]; systemic / in life observation / body weight / body weight gain + systemic / in life observation / clinical signs / hunched posture + …): 5 mg/kg/day | LEL (rat [21]; [43]): 1.25 mg/kg/day | NEL (rat [21]; [43]): < 1.25 mg/kg/day

COc1cc(OC)nc(NC(=O)NS(=O)(=O)c2cc(NC=O)ccc2C(=O)N(C)C)n1 [Foramsulfuron]
LEL (mouse [22]): 1000 mg/kg/day | LOAEL (mouse [22]): > 1000 mg/kg/day | NEL (mouse [22]): 498 mg/kg/day | NOAEL (mouse [22]): ≥ 1000 mg/kg/day
